Literature values, collected in US12156898B2, “Formulations of terlipressin” (BIOVIE Inc., priority 2019, dated 2024).
Bridge positions count the residues as written; N and C are the ends. Peptide text beside a SMILES is read from it.

What was measured:
patients = conditions: human, in vivo
[1] = in vivo

In the case of NCCCC[C@H](NC(=O)[C@@H]1CCCN1C(=O)[C@@H]1CSSC[C@H](NC(=O)CNC(=O)CNC(=O)CN)C(=O)N[C@@H](Cc2ccc(O)cc2)C(=O)N[C@@H](Cc2ccccc2)C(=O)N[C@@H](CCC(N)=O)C(=O)N[C@@H](CC(N)=O)C(=O)N1)C(=O)NCC(N)=O [terlipressin] (H-GGGCYFQNCPKG-NH2; disulfide 4-9), the “severe side effects requiring discontinuation of treatment, share of patients” value (patients) is listed as “up to 10%”, the “side effects, share of patients” value (patients) is listed as “up to 40%” and the half-life [1] is listed as “short half-life”.
